Key:
[1] = wn = mass fraction of the nth substance listed; details: for surface tension liquid-gas: Maximal bubble pressure; for mass density: 100 kPa, Liquid, Vibrating tube method
[2] = refractive index (Na D-line) (dimensionless); wn = mass fraction of the nth substance listed; details: 100 kPa, Liquid, Standard Abbe refractometry

CCCCn1cc[n+](C)c1.N[C@@H](CO)C(=O)[O-] [1-butyl-3-methylimidazolium L-serinate] + O
Details	mass density [kg/m3]	refractive index	surface tension liquid-gas [mN/m]
[1], 298.15 K, w2 = 0.00489	1156.16	–	–
[1], 298.15 K, w2 = 0.00632	1156.21	–	–
[1], 298.15 K, w2 = 0.00706	–	–	46.4
[1], 298.15 K, w2 = 0.00783	1156.25	–	–
[1], 298.15 K, w2 = 0.00859	–	–	46.7
[1], 298.15 K, w2 = 0.00933	1156.29	–	–
[1], 298.15 K, w2 = 0.01019	–	–	46.9
[1], 298.15 K, w2 = 0.01094	1156.32	–	–
[1], 298.15 K, w2 = 0.01171	–	–	47.1
[1], 298.15 K, w2 = 0.01331	–	–	47.3
[1], 303.15 K, w2 = 0.00489	1152.97	–	–
[1], 303.15 K, w2 = 0.00632	1153.01	–	–
[1], 303.15 K, w2 = 0.00706	–	–	46.2
[1], 303.15 K, w2 = 0.00783	1153.06	–	–
[1], 303.15 K, w2 = 0.00859	–	–	46.4
[1], 303.15 K, w2 = 0.00933	1153.1	–	–
[1], 303.15 K, w2 = 0.01019	–	–	46.7
[1], 303.15 K, w2 = 0.01094	1153.15	–	–
[1], 303.15 K, w2 = 0.01171	–	–	46.9
[1], 303.15 K, w2 = 0.01331	–	–	47.1
[1], 308.15 K, w2 = 0.00489	1149.77	–	–
[1], 308.15 K, w2 = 0.00632	1149.82	–	–
[1], 308.15 K, w2 = 0.00706	–	–	46
[1], 308.15 K, w2 = 0.00783	1149.86	–	–
[1], 308.15 K, w2 = 0.00859	–	–	46.2
[1], 308.15 K, w2 = 0.00933	1149.91	–	–
[1], 308.15 K, w2 = 0.01019	–	–	46.4
[1], 308.15 K, w2 = 0.01094	1149.97	–	–
[1], 308.15 K, w2 = 0.01171	–	–	46.6
[1], 308.15 K, w2 = 0.01331	–	–	46.9
[1], 313.15 K, w2 = 0.00489	1146.61	–	–
[1], 313.15 K, w2 = 0.00632	1146.67	–	–
[1], 313.15 K, w2 = 0.00706	–	–	45.7
[1], 313.15 K, w2 = 0.00783	1146.72	–	–
[1], 313.15 K, w2 = 0.00859	–	–	45.9
[1], 313.15 K, w2 = 0.00933	1146.76	–	–
[1], 313.15 K, w2 = 0.01019	–	–	46.1
[1], 313.15 K, w2 = 0.01094	1146.82	–	–
[1], 313.15 K, w2 = 0.01171	–	–	46.3
[1], 313.15 K, w2 = 0.01331	–	–	46.6
[1], 318.15 K, w2 = 0.00489	1143.46	–	–
[1], 318.15 K, w2 = 0.00632	1143.52	–	–
[1], 318.15 K, w2 = 0.00706	–	–	45.4
[1], 318.15 K, w2 = 0.00783	1143.56	–	–
[1], 318.15 K, w2 = 0.00859	–	–	45.6
[1], 318.15 K, w2 = 0.00933	1143.61	–	–
[1], 318.15 K, w2 = 0.01019	–	–	45.8
[1], 318.15 K, w2 = 0.01094	1143.65	–	–
[1], 318.15 K, w2 = 0.01171	–	–	46
[1], 318.15 K, w2 = 0.01331	–	–	46.3
[1], 323.15 K, w2 = 0.00489	1140.24	–	–
[1], 323.15 K, w2 = 0.00632	1140.3	–	–
[1], 323.15 K, w2 = 0.00706	–	–	45.2
[1], 323.15 K, w2 = 0.00783	1140.34	–	–
[1], 323.15 K, w2 = 0.00859	–	–	45.4
[1], 323.15 K, w2 = 0.00933	1140.39	–	–
[1], 323.15 K, w2 = 0.01019	–	–	45.6
[1], 323.15 K, w2 = 0.01094	1140.45	–	–
[1], 323.15 K, w2 = 0.01171	–	–	45.8
[1], 323.15 K, w2 = 0.01331	–	–	46
[1], 328.15 K, w2 = 0.00489	1137.09	–	–
[1], 328.15 K, w2 = 0.00632	1137.16	–	–
[1], 328.15 K, w2 = 0.00706	–	–	44.9
[1], 328.15 K, w2 = 0.00783	1137.21	–	–
[1], 328.15 K, w2 = 0.00859	–	–	45.1
[1], 328.15 K, w2 = 0.00933	1137.27	–	–
[1], 328.15 K, w2 = 0.01019	–	–	45.3
[1], 328.15 K, w2 = 0.01094	1137.32	–	–
[1], 328.15 K, w2 = 0.01171	–	–	45.5
[1], 328.15 K, w2 = 0.01331	–	–	45.7
[1], 333.15 K, w2 = 0.00489	1133.97	–	–
[1], 333.15 K, w2 = 0.00632	1134.03	–	–
[1], 333.15 K, w2 = 0.00706	–	–	44.7
[1], 333.15 K, w2 = 0.00783	1134.08	–	–
[1], 333.15 K, w2 = 0.00859	–	–	44.9
[1], 333.15 K, w2 = 0.00933	1134.13	–	–
[1], 333.15 K, w2 = 0.01019	–	–	45.1
[1], 333.15 K, w2 = 0.01094	1134.18	–	–
[1], 333.15 K, w2 = 0.01171	–	–	45.3
[1], 333.15 K, w2 = 0.01331	–	–	45.5
[1], 338.15 K, w2 = 0.00489	1130.83	–	–
[1], 338.15 K, w2 = 0.00632	1130.9	–	–
[1], 338.15 K, w2 = 0.00706	–	–	44.5
[1], 338.15 K, w2 = 0.00783	1130.95	–	–
[1], 338.15 K, w2 = 0.00859	–	–	44.7
[1], 338.15 K, w2 = 0.00933	1131.01	–	–
[1], 338.15 K, w2 = 0.01019	–	–	44.9
[1], 338.15 K, w2 = 0.01094	1131.07	–	–
[1], 338.15 K, w2 = 0.01171	–	–	45.1
[1], 338.15 K, w2 = 0.01331	–	–	45.4
[2], 298.15 K, w2 = 0.00594	–	1.5125	–
[2], 298.15 K, w2 = 0.00746	–	1.5122	–
[2], 298.15 K, w2 = 0.00898	–	1.5117	–
[2], 298.15 K, w2 = 0.0105	–	1.5112	–
[2], 298.15 K, w2 = 0.01211	–	1.5108	–
[2], 303.15 K, w2 = 0.00594	–	1.5117	–
[2], 303.15 K, w2 = 0.00746	–	1.5113	–
[2], 303.15 K, w2 = 0.00898	–	1.5109	–
[2], 303.15 K, w2 = 0.0105	–	1.5104	–
[2], 303.15 K, w2 = 0.01211	–	1.5099	–
[2], 308.15 K, w2 = 0.00594	–	1.5109	–
[2], 308.15 K, w2 = 0.00746	–	1.5104	–
[2], 308.15 K, w2 = 0.00898	–	1.5101	–
[2], 308.15 K, w2 = 0.0105	–	1.5096	–
[2], 308.15 K, w2 = 0.01211	–	1.5091	–
[2], 313.15 K, w2 = 0.00594	–	1.5099	–
[2], 313.15 K, w2 = 0.00746	–	1.5094	–
[2], 313.15 K, w2 = 0.00898	–	1.5091	–
[2], 313.15 K, w2 = 0.0105	–	1.5087	–
[2], 313.15 K, w2 = 0.01211	–	1.5083	–
[2], 318.15 K, w2 = 0.00594	–	1.5089	–
[2], 318.15 K, w2 = 0.00746	–	1.5084	–
[2], 318.15 K, w2 = 0.00898	–	1.5079	–
[2], 318.15 K, w2 = 0.0105	–	1.5075	–
[2], 318.15 K, w2 = 0.01211	–	1.5071	–
[2], 323.15 K, w2 = 0.00594	–	1.5078	–
[2], 323.15 K, w2 = 0.00746	–	1.5073	–
[2], 323.15 K, w2 = 0.00898	–	1.5068	–
[2], 323.15 K, w2 = 0.0105	–	1.5064	–
[2], 323.15 K, w2 = 0.01211	–	1.5059	–
[2], 328.15 K, w2 = 0.00594	–	1.5071	–
[2], 328.15 K, w2 = 0.00746	–	1.5065	–
[2], 328.15 K, w2 = 0.00898	–	1.5059	–
[2], 328.15 K, w2 = 0.0105	–	1.5055	–
[2], 328.15 K, w2 = 0.01211	–	1.5049	–
[2], 333.15 K, w2 = 0.00594	–	1.5059	–
[2], 333.15 K, w2 = 0.00746	–	1.5055	–
[2], 333.15 K, w2 = 0.00898	–	1.5049	–
[2], 333.15 K, w2 = 0.0105	–	1.5045	–
[2], 333.15 K, w2 = 0.01211	–	1.5041	–
[2], 338.15 K, w2 = 0.00594	–	1.5051	–
[2], 338.15 K, w2 = 0.00746	–	1.5045	–
[2], 338.15 K, w2 = 0.00898	–	1.5041	–
[2], 338.15 K, w2 = 0.0105	–	1.5036	–
[2], 338.15 K, w2 = 0.01211	–	1.5032	–
